Experimental data from ChEMBL document CHEMBL5465560, “Selectivity Literature for EUbOPEN Chemogenomic Library” (2024).

What was measured:
[1] = molecular target: T1, SNF-related serine/threonine-protein kinase (Homo sapiens) (UniProt Q9NRH2); test: Selectivity interaction (KinomeScan (DiscoverX)) EUB0001049a SNRK; conditions: at 1 µM
T1 sequence (whole entry): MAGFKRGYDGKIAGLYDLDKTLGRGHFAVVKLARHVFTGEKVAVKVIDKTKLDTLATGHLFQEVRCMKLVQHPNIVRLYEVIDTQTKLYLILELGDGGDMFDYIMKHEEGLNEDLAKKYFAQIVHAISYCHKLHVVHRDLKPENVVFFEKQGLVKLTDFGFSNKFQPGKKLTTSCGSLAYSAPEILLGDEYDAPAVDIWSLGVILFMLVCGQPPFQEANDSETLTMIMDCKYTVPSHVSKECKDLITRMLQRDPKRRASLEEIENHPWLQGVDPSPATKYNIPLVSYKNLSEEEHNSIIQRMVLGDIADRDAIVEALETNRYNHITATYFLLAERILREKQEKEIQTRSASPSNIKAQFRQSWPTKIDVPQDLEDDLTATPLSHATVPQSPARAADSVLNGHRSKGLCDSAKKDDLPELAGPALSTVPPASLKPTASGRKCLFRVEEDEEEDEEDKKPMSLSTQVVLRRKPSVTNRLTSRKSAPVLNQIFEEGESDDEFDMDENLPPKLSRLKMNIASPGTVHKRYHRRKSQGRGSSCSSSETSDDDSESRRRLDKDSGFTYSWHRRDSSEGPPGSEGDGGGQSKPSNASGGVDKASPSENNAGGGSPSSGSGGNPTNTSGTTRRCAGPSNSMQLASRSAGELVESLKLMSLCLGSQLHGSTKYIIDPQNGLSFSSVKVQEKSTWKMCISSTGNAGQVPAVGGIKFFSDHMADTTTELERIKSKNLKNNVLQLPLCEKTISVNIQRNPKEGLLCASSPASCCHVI

[2] = molecular target: Transient receptor potential cation channel subfamily M member 6 (Homo sapiens) (UniProt Q9BX84); test: Selectivity interaction (KinomeScan (DiscoverX)) EUB0001049a TRPM6; conditions: at 1 µM
Transient receptor potential cation channel subfamily M member 6 (Homo sapiens), sequence (Q9BX84 whole entry): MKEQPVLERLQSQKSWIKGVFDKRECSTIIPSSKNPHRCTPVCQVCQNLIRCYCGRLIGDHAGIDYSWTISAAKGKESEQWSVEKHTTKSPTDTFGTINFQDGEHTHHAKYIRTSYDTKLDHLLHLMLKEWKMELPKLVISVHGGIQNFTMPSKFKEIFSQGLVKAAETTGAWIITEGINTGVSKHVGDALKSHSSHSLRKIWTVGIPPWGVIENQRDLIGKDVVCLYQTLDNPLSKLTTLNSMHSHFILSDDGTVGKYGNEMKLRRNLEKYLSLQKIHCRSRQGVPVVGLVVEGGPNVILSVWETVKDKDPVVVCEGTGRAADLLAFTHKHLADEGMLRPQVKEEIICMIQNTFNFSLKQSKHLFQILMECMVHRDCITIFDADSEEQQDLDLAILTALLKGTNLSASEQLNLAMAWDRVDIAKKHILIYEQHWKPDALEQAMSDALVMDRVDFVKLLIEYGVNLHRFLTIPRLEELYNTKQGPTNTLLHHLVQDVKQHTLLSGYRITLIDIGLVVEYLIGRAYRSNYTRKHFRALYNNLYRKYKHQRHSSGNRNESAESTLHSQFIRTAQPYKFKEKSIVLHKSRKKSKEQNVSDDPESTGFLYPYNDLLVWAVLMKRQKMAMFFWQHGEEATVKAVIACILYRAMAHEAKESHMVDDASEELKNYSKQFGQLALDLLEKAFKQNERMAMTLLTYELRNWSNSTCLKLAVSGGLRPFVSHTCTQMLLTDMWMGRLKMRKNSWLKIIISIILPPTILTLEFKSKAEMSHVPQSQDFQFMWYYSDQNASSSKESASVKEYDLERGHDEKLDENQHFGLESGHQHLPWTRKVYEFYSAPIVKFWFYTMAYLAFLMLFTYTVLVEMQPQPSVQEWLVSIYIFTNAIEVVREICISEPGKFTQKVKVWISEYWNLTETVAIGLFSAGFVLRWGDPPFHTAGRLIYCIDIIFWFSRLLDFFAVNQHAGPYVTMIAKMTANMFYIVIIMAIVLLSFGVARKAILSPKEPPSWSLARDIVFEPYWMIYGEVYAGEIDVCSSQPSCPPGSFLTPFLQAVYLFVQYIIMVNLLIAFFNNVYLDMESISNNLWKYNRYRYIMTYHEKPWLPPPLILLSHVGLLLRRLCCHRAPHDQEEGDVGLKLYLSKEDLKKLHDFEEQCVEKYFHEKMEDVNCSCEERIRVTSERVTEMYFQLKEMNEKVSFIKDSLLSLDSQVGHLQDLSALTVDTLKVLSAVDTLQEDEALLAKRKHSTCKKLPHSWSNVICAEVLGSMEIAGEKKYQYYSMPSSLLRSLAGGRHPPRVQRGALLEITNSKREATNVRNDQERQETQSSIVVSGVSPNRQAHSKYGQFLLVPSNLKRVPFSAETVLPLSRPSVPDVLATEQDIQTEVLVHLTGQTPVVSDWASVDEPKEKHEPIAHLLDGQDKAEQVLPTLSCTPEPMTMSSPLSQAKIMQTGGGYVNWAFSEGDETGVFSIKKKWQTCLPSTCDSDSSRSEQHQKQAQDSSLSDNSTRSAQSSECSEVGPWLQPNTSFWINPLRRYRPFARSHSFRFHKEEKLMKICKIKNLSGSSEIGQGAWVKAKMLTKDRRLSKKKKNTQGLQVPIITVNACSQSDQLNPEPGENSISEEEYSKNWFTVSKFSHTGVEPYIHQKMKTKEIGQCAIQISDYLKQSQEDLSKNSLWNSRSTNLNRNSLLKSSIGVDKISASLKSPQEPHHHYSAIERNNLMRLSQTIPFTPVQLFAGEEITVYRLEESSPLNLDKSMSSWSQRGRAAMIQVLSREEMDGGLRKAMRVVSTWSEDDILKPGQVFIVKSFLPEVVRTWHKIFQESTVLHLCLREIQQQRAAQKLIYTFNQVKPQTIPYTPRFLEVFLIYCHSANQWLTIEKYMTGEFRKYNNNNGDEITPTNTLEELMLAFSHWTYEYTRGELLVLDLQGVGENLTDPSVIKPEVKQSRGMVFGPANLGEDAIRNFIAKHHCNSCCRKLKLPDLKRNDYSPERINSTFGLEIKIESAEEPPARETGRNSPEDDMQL

[3] = molecular target: Bromodomain-containing protein 2 (Homo sapiens) (UniProt P25440); test: Selectivity interaction (Bromodomain panel (DSF asssay)) EUB0000270b BRD2
Bromodomain-containing protein 2 (Homo sapiens), sequence (P25440 whole entry, looked up): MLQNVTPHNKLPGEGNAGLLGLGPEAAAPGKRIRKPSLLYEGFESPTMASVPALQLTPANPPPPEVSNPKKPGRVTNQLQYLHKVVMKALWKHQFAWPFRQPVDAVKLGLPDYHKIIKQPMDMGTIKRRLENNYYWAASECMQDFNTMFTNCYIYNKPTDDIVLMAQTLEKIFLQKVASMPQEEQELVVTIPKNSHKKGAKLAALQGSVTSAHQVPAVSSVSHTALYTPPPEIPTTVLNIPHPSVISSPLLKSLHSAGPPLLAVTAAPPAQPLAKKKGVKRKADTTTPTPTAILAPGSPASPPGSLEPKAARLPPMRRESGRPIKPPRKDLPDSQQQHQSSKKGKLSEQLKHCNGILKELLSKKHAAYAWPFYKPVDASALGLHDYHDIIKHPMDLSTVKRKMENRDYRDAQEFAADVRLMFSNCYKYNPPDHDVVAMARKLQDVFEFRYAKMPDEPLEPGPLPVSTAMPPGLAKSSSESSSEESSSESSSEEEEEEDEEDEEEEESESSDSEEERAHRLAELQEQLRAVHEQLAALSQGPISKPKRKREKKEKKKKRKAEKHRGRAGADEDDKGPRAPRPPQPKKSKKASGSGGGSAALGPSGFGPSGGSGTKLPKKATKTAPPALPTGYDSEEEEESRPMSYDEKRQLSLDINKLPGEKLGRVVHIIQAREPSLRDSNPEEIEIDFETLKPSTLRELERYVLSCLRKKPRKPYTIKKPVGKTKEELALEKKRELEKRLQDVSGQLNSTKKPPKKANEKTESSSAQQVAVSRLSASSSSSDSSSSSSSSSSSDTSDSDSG

[4] = molecular target: Interleukin-1 receptor-associated kinase 1 (Homo sapiens) (UniProt P51617); test: Selectivity interaction (KinomeScan (DiscoverX)) EUB0000092b IRAK1; conditions: at 10 µM
[5] = molecular target: Cyclin-dependent kinase 16 (Homo sapiens) (UniProt Q00536); test: Selectivity interaction (KinomeScan (DiscoverX)) EUB0000045b CDK16
Cyclin-dependent kinase 16 (Homo sapiens), sequence (Q00536 whole entry): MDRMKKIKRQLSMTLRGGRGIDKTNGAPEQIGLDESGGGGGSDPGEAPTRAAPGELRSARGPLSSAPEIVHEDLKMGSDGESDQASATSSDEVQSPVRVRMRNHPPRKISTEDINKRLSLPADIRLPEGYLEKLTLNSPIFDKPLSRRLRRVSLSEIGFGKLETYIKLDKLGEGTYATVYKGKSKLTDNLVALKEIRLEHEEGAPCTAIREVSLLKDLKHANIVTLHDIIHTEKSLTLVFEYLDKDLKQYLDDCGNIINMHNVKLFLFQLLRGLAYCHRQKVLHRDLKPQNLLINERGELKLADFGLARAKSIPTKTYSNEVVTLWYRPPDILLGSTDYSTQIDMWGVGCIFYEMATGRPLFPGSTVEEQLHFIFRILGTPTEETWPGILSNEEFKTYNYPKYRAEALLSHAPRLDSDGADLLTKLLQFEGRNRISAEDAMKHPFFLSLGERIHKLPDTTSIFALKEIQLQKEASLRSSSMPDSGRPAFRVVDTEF

[6] = molecular target: Dual specificity mitogen-activated protein kinase kinase 2 (Homo sapiens) (UniProt P36507); conditions: at 10 µM
[7] = molecular target: Dual specificity protein kinase CLK1 (Homo sapiens, UniProt P49759); conditions: at 10 µM
Dual specificity protein kinase CLK1, sequence (P49759 whole entry, looked up): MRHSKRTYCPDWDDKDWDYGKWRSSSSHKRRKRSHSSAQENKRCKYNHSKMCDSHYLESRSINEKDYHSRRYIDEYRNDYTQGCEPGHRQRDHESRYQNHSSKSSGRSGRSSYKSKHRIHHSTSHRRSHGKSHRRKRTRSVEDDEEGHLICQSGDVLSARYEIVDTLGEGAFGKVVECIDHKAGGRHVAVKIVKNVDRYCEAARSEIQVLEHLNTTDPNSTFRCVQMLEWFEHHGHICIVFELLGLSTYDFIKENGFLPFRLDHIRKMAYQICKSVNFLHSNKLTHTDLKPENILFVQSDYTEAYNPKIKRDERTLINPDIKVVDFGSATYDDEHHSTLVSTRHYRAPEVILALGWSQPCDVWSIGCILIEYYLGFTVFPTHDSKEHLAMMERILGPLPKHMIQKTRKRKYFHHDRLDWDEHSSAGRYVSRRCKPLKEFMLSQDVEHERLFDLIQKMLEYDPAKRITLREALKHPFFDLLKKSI

[8] = molecular target: Homeodomain-interacting protein kinase 2 (Homo sapiens, UniProt Q9H2X6); test: Selectivity interaction (KinomeScan (DiscoverX)) EUB0001619a HIPK2; conditions: at 1 µM
[9] = molecular target: T2, Discoidin domain-containing receptor 2 (Homo sapiens) (UniProt Q16832); test: Selectivity interaction (KinomeScan (DiscoverX)) EUB0001619a DDR2; conditions: at 1 µM
T2 sequence (whole entry): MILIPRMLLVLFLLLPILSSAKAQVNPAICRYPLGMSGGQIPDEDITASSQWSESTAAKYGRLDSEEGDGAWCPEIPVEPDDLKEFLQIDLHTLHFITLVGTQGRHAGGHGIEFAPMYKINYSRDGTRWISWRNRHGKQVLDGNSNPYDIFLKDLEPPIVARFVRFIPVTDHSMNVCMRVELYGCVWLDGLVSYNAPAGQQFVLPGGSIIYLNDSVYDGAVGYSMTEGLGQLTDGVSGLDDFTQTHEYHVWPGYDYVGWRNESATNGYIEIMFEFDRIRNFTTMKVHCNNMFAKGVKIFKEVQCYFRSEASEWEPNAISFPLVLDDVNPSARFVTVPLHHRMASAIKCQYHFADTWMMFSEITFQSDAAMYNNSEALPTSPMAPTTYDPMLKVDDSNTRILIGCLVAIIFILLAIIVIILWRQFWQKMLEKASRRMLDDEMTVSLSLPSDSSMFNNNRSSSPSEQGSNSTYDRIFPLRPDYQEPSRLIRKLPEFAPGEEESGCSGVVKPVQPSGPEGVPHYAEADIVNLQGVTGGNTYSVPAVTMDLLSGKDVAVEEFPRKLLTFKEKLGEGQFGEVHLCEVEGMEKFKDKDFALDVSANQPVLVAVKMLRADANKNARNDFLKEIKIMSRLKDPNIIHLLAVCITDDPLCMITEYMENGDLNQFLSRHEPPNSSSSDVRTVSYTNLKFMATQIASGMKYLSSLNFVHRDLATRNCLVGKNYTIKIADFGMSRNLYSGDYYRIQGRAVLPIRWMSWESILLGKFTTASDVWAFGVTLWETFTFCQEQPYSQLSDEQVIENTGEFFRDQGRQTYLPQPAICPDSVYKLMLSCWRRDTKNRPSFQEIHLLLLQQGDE

[10] = molecular target: T3, Dual specificity mitogen-activated protein kinase kinase 4 (Homo sapiens) (UniProt P45985); test: Selectivity interaction (KinomeScan (DiscoverX)) EUB0000607a MAP2K4; conditions: at 10 µM
T3 sequence (whole entry): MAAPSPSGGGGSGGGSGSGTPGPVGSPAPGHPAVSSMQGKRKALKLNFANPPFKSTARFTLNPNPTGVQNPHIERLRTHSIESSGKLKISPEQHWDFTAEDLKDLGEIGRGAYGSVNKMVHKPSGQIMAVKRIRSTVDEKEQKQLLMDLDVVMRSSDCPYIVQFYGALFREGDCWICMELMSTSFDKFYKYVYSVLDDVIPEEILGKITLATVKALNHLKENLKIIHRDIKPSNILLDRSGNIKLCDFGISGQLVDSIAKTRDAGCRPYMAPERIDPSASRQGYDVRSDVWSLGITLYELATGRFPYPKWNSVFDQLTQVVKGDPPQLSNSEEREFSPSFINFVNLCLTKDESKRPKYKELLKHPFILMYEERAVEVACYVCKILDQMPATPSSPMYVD

[11] = molecular target: Wee1-like protein kinase (Homo sapiens) (UniProt P30291); test: Selectivity interaction (LanthaScreen Eu Kinase Binding Assay) EUB0001632a WEE1; conditions: at 10 µM
Wee1-like protein kinase (Homo sapiens), sequence (P30291 whole entry, looked up): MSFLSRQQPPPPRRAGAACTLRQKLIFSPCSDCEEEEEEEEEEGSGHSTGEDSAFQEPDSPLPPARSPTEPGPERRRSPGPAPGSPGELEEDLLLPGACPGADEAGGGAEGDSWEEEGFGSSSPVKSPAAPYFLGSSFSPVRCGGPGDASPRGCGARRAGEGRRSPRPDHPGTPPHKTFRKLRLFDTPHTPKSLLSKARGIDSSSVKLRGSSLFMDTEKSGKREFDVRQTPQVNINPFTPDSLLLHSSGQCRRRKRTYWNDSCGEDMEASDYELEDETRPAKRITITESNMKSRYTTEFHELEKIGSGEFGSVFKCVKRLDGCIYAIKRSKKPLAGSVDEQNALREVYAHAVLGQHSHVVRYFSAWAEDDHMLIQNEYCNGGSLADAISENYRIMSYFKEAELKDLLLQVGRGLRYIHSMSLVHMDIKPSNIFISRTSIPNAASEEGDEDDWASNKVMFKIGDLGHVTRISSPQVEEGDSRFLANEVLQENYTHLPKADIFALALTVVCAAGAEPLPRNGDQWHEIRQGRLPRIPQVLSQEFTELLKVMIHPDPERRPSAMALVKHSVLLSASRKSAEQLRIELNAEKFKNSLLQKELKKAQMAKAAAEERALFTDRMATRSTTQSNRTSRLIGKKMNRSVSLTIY

[12] = molecular target: Cyclin-dependent kinase 5/CDK5 activator 1 (Homo sapiens) (UniProt Q00535+Q15078); test: Selectivity interaction (Kinase panel (Z-LYTE Assay)) EUB0001632a CDK5; assay type: protein-complex assay; conditions: at 10 µM
[13] = molecular target: Interferon-induced, double-stranded RNA-activated protein kinase (Homo sapiens) (UniProt P19525); test: Selectivity interaction (ProQinase) EUB0000171b EIF2AK2
Interferon-induced, double-stranded RNA-activated protein kinase (Homo sapiens), sequence (P19525 whole entry): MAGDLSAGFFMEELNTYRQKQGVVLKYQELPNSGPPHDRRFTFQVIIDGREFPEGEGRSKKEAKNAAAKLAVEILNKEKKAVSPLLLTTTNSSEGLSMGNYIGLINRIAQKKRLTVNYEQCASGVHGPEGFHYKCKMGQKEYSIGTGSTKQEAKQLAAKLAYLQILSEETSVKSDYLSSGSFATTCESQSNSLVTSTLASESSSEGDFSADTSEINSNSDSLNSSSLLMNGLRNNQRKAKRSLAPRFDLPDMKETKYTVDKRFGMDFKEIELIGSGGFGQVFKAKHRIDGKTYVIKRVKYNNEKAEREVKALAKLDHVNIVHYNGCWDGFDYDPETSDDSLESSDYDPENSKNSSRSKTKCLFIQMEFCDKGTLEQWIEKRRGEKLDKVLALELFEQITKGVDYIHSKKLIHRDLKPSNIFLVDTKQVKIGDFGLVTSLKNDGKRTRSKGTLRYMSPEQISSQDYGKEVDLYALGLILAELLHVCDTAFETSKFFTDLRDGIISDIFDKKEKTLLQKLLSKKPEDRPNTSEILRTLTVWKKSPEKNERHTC

In the case of `COc1cc(Nc2nc(C)cc(-c3cnn4nc(OC)ccc34)n2)cc(C(F)(F)F)c1`, the % of control [1] was 100% and the % of control [2] was 96%.
For `Cc1cc(CN)cc(C)c1-c1ncn(C)c1-c1cncn1C`, the dTM [3] was -1.94 K.
With `CCC(=O)N1CCN(c2ccc(-n3c(=O)ccc4cnc5ccc(-c6cnc7ccccc7c6)cc5c43)cc2C(F)(F)F)CC1` the % of control [4] was 100%.
In the case of `C=CC(=O)Nc1cc(-n2c(=O)ccc3cnc4ccc(-c5ccc(NS(C)(=O)=O)cc5)cc4c32)ccc1C`, the % of control ([5]; at 1 µM) was 100% and the % of control ([5]; at 10 µM) was 100%.
In the case of `Cc1cc([C@@H](C)Nc2ccccc2C(=O)O)c2nc(N3CCOCC3)cc(=O)n2c1` [AZD-6482], the % of control [6] was 100% and the % of control [7] was 74%.
`N#Cc1cccc(-c2c[nH]c3ncnc(N4CCOCC4)c23)c1` was tested, and the % of control [8] was 65% and the % of control [9] was 71%.
Work on `CNC(=O)Nc1ccc(-c2nc(N3CC4CCC(C3)O4)c3cnn(C4CCC5(CC4)OCCO5)c3n2)cc1` yielded a % of control [10] of 90%.
`Cn1cc(-n2cnc3c(NCc4nc5cc(Cl)c(Cl)cc5[nH]4)nc(N4CCOCC4)nc32)cn1` was tested, and the % of inhibition [11] was -20.9% and the % of control [12] was 5.78%.
Work on `C=CC(=O)Nc1cccc(C(=O)Nc2ccc(Nc3cc(-c4[nH]c(SC)nc4C)ccn3)cc2)c1` yielded a % of control ([13]; at 1 µM) of 84% and a % of control ([13]; at 5 µM) of 55%.
